Experimental data as given in PubChem BioAssay (NCI).
Where “and” joins values, the source holds several entries; their conditions need not be identical. Identical values can stand only once.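 Exposure lasted 48 hours, with cells grown in 96-well plates and compounds tested at five concentrations. At the GI50, growth is halved. TGI marks complete inhibition of growth.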

Tests used:
Assay in all cases: DTP human tumour cell line panel, 48 h
[1] = system: 786-0 renal
[2] = system: HCT-15 colon
[3] = system: MALME-3M melanoma
[4] = system: NCI-H522 lung
[5] = system: OVCAR-3 ovarian
[6] = system: OVCAR-4 ovarian
[7] = system: OVCAR-5 ovarian
[8] = system: SF-295 CNS
[9] = system: SK-MEL-2 melanoma
[10] = system: U251 CNS

SMILES | TGI [1] | TGI [2] | TGI [3] | TGI [4] | TGI [5] | TGI [6] | TGI [7] | TGI [8] | TGI [9] | TGI [10] | GI50 [1] | GI50 [2] | GI50 [3] | GI50 [4] | GI50 [5] | GI50 [6] | GI50 [7] | GI50 [8] | GI50 [9] | GI50 [10]
Cc1cc(C)c(C(=O)O)c(N)c1O | > 100 µM | > 100 µM | > 100 µM | > 100 µM | > 100 µM | > 100 µM | > 100 µM | > 100 µM | > 100 µM | > 100 µM |  |  |  |  |  |  |  |  |  | 
CN1CCN(C(=O)c2ccc(NC(=O)Nc3ccc(N(C)c4ccnc(Nc5ccc(CS(C)(=O)=O)cc5)n4)cc3)cc2)CC1 | > 25 µM | > 25 µM | > 25 µM | > 25 µM | > 19.4 µM | > 25 µM | > 25 µM | > 25 µM | > 25 µM | > 25 µM | > 25 µM | > 25 µM | > 15 µM | 7.65 µM | 7.44 µM | 8.15 µM | > 25 µM | > 22.5 µM | > 12.7 µM | 6.26 µM
CC1(C)SC2C(C(=O)O)N=C(Cc3ccccc3)N2C1C(=O)O (centres undefined) | 42.1 µM | > 100 µM | > 100 µM | > 100 µM | > 100 µM | > 100 µM | > 100 µM | > 100 µM | > 100 µM | > 100 µM |  |  |  |  |  |  |  |  |  | 
CN1CCC23c4c5ccc(O)c4OC2C(=NN=C2CCC4(O)C6Cc7ccc(O)c8c7C4(CCN6C)C2O8)CCC3(O)C1C5 (centres undefined) | > 100 µM | > 100 µM | > 100 µM | > 100 µM | > 100 µM | > 100 µM | > 100 µM | > 100 µM | > 100 µM | > 100 µM |  |  |  |  |  |  |  |  |  | 
NC1=NC(=O)N2CC12 (centres undefined) | > 100 µM and 506 µM | > 100 µM and 1140 µM | > 100 µM and 202 µM | > 100 µM and 367 µM | > 100 µM and 519 µM | > 100 µM and 779 µM | 528 µM | > 100 µM and 219 µM | > 100 µM and 329 µM | > 100 µM and 620 µM | 160 µM | 301 µM | 57.8 µM and 79.7 µM | 116 µM | 171 µM | 198 µM | 170 µM | 68.6 µM and 73.1 µM | 63.3 µM | 154 µM
CS(=O)(=O)c1ccc(N/N=C/c2c(-c3ccc(S(C)(=O)=O)cc3)[nH]c3ccc(F)cc23)cc1 | > 50 µM | > 50 µM | 4.38 µM | > 50 µM | > 50 µM | > 50 µM | > 50 µM | 1.89 µM | 4.73 µM | > 50 µM | 1.69 µM | 18.1 µM | 1.34 µM | 2.08 µM | 2.23 µM | 1.97 µM | > 50 µM | 0.934 µM | 1.74 µM | 1.47 µM
CNC(=O)c1ccc(Nc2ncc(C(F)(F)F)c(NCc3nccnc3N(C)S(C)(=O)=O)n2)cc1 | > 10 µM and 11.6 µM and 18.3 µM | > 10 µM and 11.3 µM and 12.6 µM | > 10 µM and 13.3 µM and 12.7 µM | 7.06 µM and 13.3 µM and 7.4 µM | > 10 µM and 8.43 µM and 12.8 µM | > 10 µM and 12.8 µM and 10.5 µM | > 10 µM and 9.03 µM and 9.56 µM | > 10 µM and 10.9 µM and 12.9 µM | 3.71 µM and 4.28 µM and 4.63 µM | > 10 µM and 12 µM and 13.6 µM | 2.17 µM and 1.98 µM and 2.01 µM | 2.92 µM and 2.65 µM and 2.57 µM | 4.1 µM and 2.98 µM and 3.71 µM | 1.97 µM and 2.52 µM and 2.76 µM | 3.16 µM and 2.26 µM and 2.71 µM | 5.37 µM and 2.41 µM and 1.9 µM | 2.18 µM and 1.98 µM and 1.93 µM | 3.04 µM and 2.6 µM and 2.61 µM | 0.783 µM and 1.32 µM and 1.6 µM | 3.29 µM and 3.18 µM and 2.88 µM
C=C(C)C(=O)NC(N)=NC#N | 140 µM | 243 µM | 63.2 µM and 214 µM | 16.4 µM and 5.88 µM | 259 µM | 35.7 µM and 295 µM | 304 µM | 330 µM | 261 µM | 260 µM | 30 µM | 103 µM | 80.8 µM | 2.26 µM | 129 µM | 140 µM |  | 179 µM | 134 µM | 131 µM
